Assay results published in publication PMC8878324, “Evaluation of New Antimicrobial Agents Based on tris(1H-Indol-3-yl)methylium Salts: Activity, Toxicity, Suppression of Experimental Sepsis in Mice” (Pharmaceuticals, 2022).
≈ marks a conversion by molar mass, not a printed value.

Key:
[1] = tested on: Aspergillus niger ATCC 16404; experiment: MIC by broth microdilution (RPMI 1640); type: cell-based; settings: ATCC16404
Protocol: (§1) We have tested the antimicrobial activity in vitro of over 100 tris(indolyl)methane derivatives against 16 strains of Gram-positive, Gram-negative bacteria and fungi including either sensitive or drug-resistant strains from ATCC, as well as resistant clinical isolates from the culture collection of the Laboratory for Control of Hospital Infections (Sechenov University, Moscow, Russia). The minimum inhibitory concentrations (MICs) were determined by the microdilution method in a cation-adjusted Müller–Hinton medium for bacteria and in a liquid culture medium RPMI 1640 with L-glutamine without sodium bicarbonate for fungi in accordance with the requirements of the Institute of Clinical and Laboratory Standards (CLSI/NCCLS). […] As a rule, their activity against Gram-negative bacteria was usually not that high. […] For comparison, the antimicrobial activity of prototype 4 is shown. The antibacterial antibiotic levofloxacin and the antifungal amphotericin B were used as reference drugs (Table 1).
(§2) The synthesis of compounds and the scheme of their preparation and purification, as well as physicochemical characteristics, were described earlier. To evaluate the biological activity in vitro, the compounds were dissolved in DMSO at a concentration of 2.0–6.4 mg/mL, followed by preparation of two-fold dilutions in the same solvent, if necessary. The solutions were further diluted in an aqueous medium for the final concentration of DMSO not to exceed 1%, and the concentration of the compounds ranged from 64.0 to 0.13 μg/mL. To study compounds in vivo, solutions for intravenous administration in 5% glucose solution were prepared. Solutions were sterilized by filtration through 0.22 µm filters (Millipore, Burlington, MA, USA).
(§3) Strains of Gram-positive, Gram-negative bacteria and fungi including sensitive or drug-resistant strains from ATCC, as well as resistant clinical isolates from the culture collection of the Laboratory for Control of Hospital Infections (Sechenov University, Moscow, Russia), were used. Clinical isolates of Gram-positive bacteria Staphylococcus aureus 5 (MRSA), Staphylococcus aureus 10, Staphylococcus aureus 100KC (MRSA), Staphylococcus epidermidis 533, Staphylococcus haemoliticus 585 and Enterococcus faecium 569, as well as collection cultures of Gram-positive bacteria Staphylococcus aureus ATCC 700699, Staphylococcus aureus ATCC 25923, Staphylococcus aureus ATCC 3798 and collection cultures of Gram-negative bacteria Escherichia coli ATCC 25922, Klebsiella pneumoniae ATCC 13883, Proteus vulgaris ATCC 13315, Salmonella cholerasuis ATCC 14028, Pseudomonas aeruginosa ATCC 27853 and collection cultures of the yeast Candida albicans ATCC 14053 and the fungi Aspergillus niger ATCC 16404 were used. To grow the microorganisms, we used Trypticase Soy Agar (TSA, Sigma-Aldrich Co., Burlington, MA, USA). Trypticase Soy Agar, BBL, was used for cultivation of Staphylococcus spp. and E. coli. For cultivation of Enterococcus spp. and P. aeruginosa we used a ready-made dry medium Columbia Agar Base, BBL. The media were sterilized by autoclaving at 121 °C for 15 min. Yeast culture C. albicans was grown on Sabouraud agar (peptone—10 g, glucose—40 g, agar—20 g, distilled water—1 L, pH 6.0), and filamentous fungi A. niger was grown on potato–glucose agar (potatoes—200 g, glucose—20 g, agar—15 g, distilled water—1 L, pH 5.5–6.0).
(§4) To determine the antibacterial effect, a liquid Müller–Hinton medium (Becton, Dickinson and Company, Cockeysville, MD, USA) was used; to determine the effect of compounds on fungi we used RPMI 1640 medium with L-glutamine, without sodium bicarbonate, which was prepared from a dry medium (ICN Biomedicals Inc., Costa Mesa, CA, USA) by dilution in distilled water, subsequent buffering with 0.165 M of morpholinepropanesulfonic acid (MOPS, Acros Organics B.V.B.A., Morris Plains, NJ, USA) and adjusting the pH of the medium to 7.0 by adding 1 N of NaOH solution. […]

[2] = tested on: Candida albicans ATCC 14053; experiment: MIC by broth microdilution (RPMI 1640); type: cell-based; settings: ATCC14053
Protocol: as §1, §2, §3, §4

[3] = Cytotoxic activity, MTT assay; type: cell-based, human; settings: human, HPF-hTERT
Protocol: The cytotoxic activity of the compounds was evaluated on the healthy donor (postnatal) human fibroblasts immortalized by transfection of the hTERT gene of the catalytic component of telomerase (hereinafter HPF-hTERT) that were obtained from N.N. Blokhin Russian Cancer Research Center. HFC-hTERT cells were cultured in Dulbecco’s modified medium (DMEM) containing 2 mM of L-glutamine, 10% fetal calf serum, 100 U/mL of penicillin and 100 μg/mL of streptomycin. Incubation was performed in a humidified atmosphere of 5% CO2 at 37 °C. In the experiment, we used cells in the logarithmic growth phase. To study the cytotoxicity of compounds, 190 μL of cell suspension (~2 thousand cells per well) was added to the wells of 96-well plates and incubated for 16 h. On the day of the experiment, serial dilutions of the test compounds were prepared in DMSO (stock solution—10 mM in 100% DMSO). Further dilutions were conducted in a nutrient medium. The final concentrations of compounds in the experiment were in a concentration range from 0.0025 to 50 μM. The final concentration of DMSO was 1% or less. Each concentration was presented in 3 repetitions. […] The cells were incubated with the test compounds for 72 h. After the end of incubation, 20 μL of MTT solution in growth medium (5 mg/mL) was added to the wells. The cells were incubated for 2 h until a purple color developed, after which the culture medium was removed. DMSO was added to the wells, and the sediment was suspended. Optical density was measured with a Thermo Scientific Multiscan FC spectrophotometer at 570 nm. The values of optical density in wells without addition of test compounds (control) were taken as 100% cell survival. The percentage of survival of cells incubated with the test compounds was calculated by dividing the optical density in the corresponding well (average of 3 independent measurements) by the optical density in the control. The concentration of drugs causing 50% cell death (IC50) was evaluated and expressed in μg/mL.

Enterococcus faecium 569 = experiment: MIC by broth microdilution; type: cell-based; settings: Enterococcus faecium 569
Protocol: as §1, §2, §3, §4

[4] = tested on: Escherichia coli ATCC 25922; experiment: MIC by broth microdilution; type: cell-based; settings: ATCC25922
Protocol: as §1, §2, §3, §4

[5] = tested on: Klebsiella pneumoniae ATCC 13883; experiment: MIC by broth microdilution; type: cell-based; settings: ATCC13883
Protocol: as §1, §2, §3, §4

[6] = tested on: Proteus vulgaris ATCC 13315; experiment: MIC by broth microdilution; type: cell-based; settings: ATCC13315
Protocol: as §1, §2, §3, §4

[7] = tested on: Pseudomonas aeruginosa ATCC 27853; experiment: MIC by broth microdilution; type: cell-based; settings: ATCC27853
Protocol: as §1, §2, §3, §4

[8] = tested on: Salmonella cholerasuis ATCC 14028; experiment: MIC by broth microdilution; type: cell-based; settings: ATCC14028
Protocol: as §1, §2, §3, §4

[9] = tested on: Staphylococcus aureus 100KC; experiment: MIC by broth microdilution; type: cell-based; settings: Staphylococcus aureus 100KC (MRSA)
Protocol: as §1, §2, §3, §4

Staphylococcus aureus 10 = experiment: MIC by broth microdilution; type: cell-based
Protocol: as §1, §2, §3, §4

Staphylococcus aureus 5 = experiment: MIC by broth microdilution; type: cell-based; settings: Staphylococcus aureus 5 (MRSA)
Protocol: as §1, §2, §3, §4

[10] = tested on: Staphylococcus aureus ATCC 25923; experiment: MIC by broth microdilution; type: cell-based; settings: ATCC25923
Protocol: as §1, §2, §3, §4

[11] = tested on: Staphylococcus aureus ATCC 3798; experiment: MIC by broth microdilution; type: cell-based; settings: ATCC3798
Protocol: as §1, §2, §3, §4

[12] = tested on: Staphylococcus aureus ATCC 700699; experiment: MIC by broth microdilution; type: cell-based; settings: ATCC700699
Protocol: as §1, §2, §3, §4

[13] = tested on: Staphylococcus epidermidis 533; experiment: MIC by broth microdilution; type: cell-based
Protocol: as §1, §2, §3, §4

[14] = tested on: Staphylococcus haemoliticus 585; experiment: MIC by broth microdilution; type: cell-based; settings: Staphylococcus haemoliticus 585
Protocol: as §1, §2, §3, §4

Gram-positive bacteria = experiment: MIC against Gram-positive bacteria; type: cell-based
Protocol: as §1
(§5) The minimum inhibitory concentrations (MIC) for Gram-positive and Gram-negative bacteria were determined by two-fold serial microdilution method in a cation-adjusted Müller–Hinton medium for bacteria and in a liquid culture medium RPMI 1640 with L-glutamine without sodium bicarbonate for fungi in accordance with the requirements of the Institute of Clinical and Laboratory Standards (CLSI/NCCLS). The antibacterial antibiotic levofloxacin and the antifungal antibiotic amphotericin B from Sigma-Aldrich were used as reference drugs.

[15] = tested on: yeast (Candida albicans) and fungi (Aspergillus niger); experiment: Antifungal activity; type: cell-based; settings: Candida albicans and Aspergillus niger
Protocol: as §1, §5

SMILES	MIC [1]	MIC [2]	IC50 at 72 h [3]	MIC (Enterococcus faecium 569)	MIC [4]	MIC [5]	MIC [6]	MIC [7]	MIC [8]	MIC [9]	MIC (Staphylococcus aureus 10)	MIC (Staphylococcus aureus 5)	MIC [10]	MIC [11]	MIC [12]	MIC [13]	MIC [14]	MIC (Gram-positive bacteria)	MIC [15]
C[C@@H]1[C@H](O)[C@@H](C)/C=C/C=C/C=C/C=C/C=C/C=C/C=C/[C@H](O[C@@H]2O[C@H](C)[C@@H](O)[C@H](N)[C@@H]2O)C[C@@H]2O[C@](O)(C[C@@H](O)C[C@@H](O)[C@H](O)CC[C@@H](O)C[C@@H](O)CC(=O)O[C@H]1C)C[C@H](O)[C@H]2C(=O)O [Amphotericin B, amphotericin B, reference compound]	1 µg/mL (≈ 1.08 µM)	1 µg/mL (≈ 1.08 µM)	0.7 µg/mL (≈ 0.758 µM)																
CCCn1cc([C+](c2cn(CCC)c3ccccc23)c2cn(CCC)c3ccccc23)c2ccccc21.[Cl-] [Compound 4, tris(1-propyl-1H-indol-3-yl) methylium chloride]	2 µg/mL	1 µg/mL	0.07 µg/mL	1 µg/mL	32 µg/mL	> 64 µg/mL	1 µg/mL	64 µg/mL	32 µg/mL	0.5 µg/mL	0.25 µg/mL	0.5 µg/mL	0.25 µg/mL	0.25 µg/mL	0.25 µg/mL	0.13 µg/mL	0.5 µg/mL	0.25 µg/mL	2 µg/mL
